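Interpolation was linear, between the two tested concentrations surrounding the appropriate level; five concentrations were tested over 48 hours in 96-well plates. At the GI50, growth is halved. TGI marks complete inhibition of growth.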 Peptide text beside a SMILES is read from it. * marks the point of attachment. X26 = Clc1c(Cl)c(Cl)c(O*)c(Cl)c1Cl; Boc = CC(C)(C)OC(=O)*; OBn = c1ccc(CO*)cc1; Bn = c1ccc(C*)cc1
Experiments:
Assay in all cases: growth of human tumour cells (NCI), 48 h
BT-549 breast = system: BT-549 breast
UACC-62 melanoma = system: UACC-62 melanoma
NCI/ADR-RES ovarian = system: NCI/ADR-RES ovarian
SW-620 colon = system: SW-620 colon
MOLT-4 leukemia = system: MOLT-4 leukemia
SF-539 CNS = system: SF-539 CNS
A498 renal = system: A498 renal
ACHN renal = system: ACHN renal
CCRF-CEM leukemia = system: CCRF-CEM leukemia
SK-MEL-28 melanoma = system: SK-MEL-28 melanoma

Row | SMILES | TGI (BT-549 breast) [µM] | TGI (UACC-62 melanoma) [µM] | TGI (NCI/ADR-RES ovarian) [µM] | TGI (SW-620 colon) [µM] | TGI (MOLT-4 leukemia) [µM] | TGI (SF-539 CNS) [µM] | TGI (A498 renal) [µM] | TGI (ACHN renal) [µM] | TGI (CCRF-CEM leukemia) [µM] | TGI (SK-MEL-28 melanoma) [µM] | GI50 (UACC-62 melanoma) [µM] | GI50 (SK-MEL-28 melanoma) [µM] | GI50 (NCI/ADR-RES ovarian) [µM] | GI50 (SW-620 colon) [µM] | GI50 (MOLT-4 leukemia) [µM] | GI50 (SF-539 CNS) [µM] | GI50 (A498 renal) [µM] | GI50 (ACHN renal) [µM] | GI50 (CCRF-CEM leukemia) [µM]
1 | CCCCCCCCCCCCOCCOCCOCCOCCOCCOCC(=O)NC(Cc1ccccc1)C(=O)Oc1ccc([N+](=O)[O-])cc1 (configuration not stated) | > 100 | 56.4 | > 100 | > 100 | 74.8 | > 100 | 75.6 | > 100 | > 100 |  |  |  |  |  |  |  |  |  | 
2 | C[C@H](c1ccccc1)N1C(=O)[C@@H](OCc2ccccc2)[C@H]1[C@H](COC(=O)COCc1ccccc1)OCc1ccccc1 |  | > 100 |  | > 100 | > 100 |  | > 100 | > 100 | > 100 | > 100 |  |  |  |  |  |  |  |  | 
3 | O=C(O)C1=NN(c2ccc(S(=O)(=O)O)cc2)C2(C1)C(Cl)C(=O)N2c1nc2ccccc2s1 (configuration not stated) | 33 | 29.5 | 56.2 | 19.8 | 39.6 | 12.6 | 36.7 | 30.7 |  | 46.3 |  |  |  |  |  |  |  |  | 
4 | CC(C)CC(NC(=O)C(CCC(=O)OCc1ccccc1)NC(=O)OC(C)(C)C)C(=O)NC(COCc1ccccc1)C(=O)NC(Cc1ccccc1)C(=O)Oc1c(Cl)c(Cl)c(Cl)c(Cl)c1Cl (configuration not stated) (Boc-E(OBn)LS(Bn)F-X26; configuration not given here) |  | 44.4 | 86.8 | > 100 | 54.1 |  |  | 57.8 | 74.7 | 56.4 |  |  |  |  |  |  |  |  | 
5 | CCN(CC)c1ccc(NC(=S)NN(C)C)cc1 |  | > 10 | > 10 | > 10 | > 10 | > 10 | > 10 | > 10 | > 10 | > 10 |  |  |  |  |  |  |  |  | 
6 | c1c(N2CCOCC2)ssc1=[N+]1CCOCC1 |  | > 100 |  | > 100 | > 100 | > 100 | > 100 | > 100 | > 100 | > 100 |  |  |  |  |  |  |  |  | 
7 | Oc1c(OCc2nnc(CCCCCCCCc3nnc(COc4ccc5ccccc5c4O)o3)o2)ccc2ccccc12 | > 100 | > 100 | > 100 | > 100 | > 100 |  | > 100 | > 100 |  | > 100 |  |  |  |  |  |  |  |  | 
8 | CN(C)CCCNc1cc(O)c2c(c1O)C(=O)c1ccccc1C2=O | 34.2 | 35.3 | 15.5 | 21.7 |  | 26.7 | 37 | 27.5 |  | 31 |  |  |  |  |  |  |  |  | 
9 | CC(=O)OC1CC2(O)C(CCC3(C)C(c4ccc(=O)oc4)CCC32O)C2(C)C1=CC(O)C1OC12 (configuration not stated) |  | 0.117 | 0.284 | 0.144 | 0.0366 | 0.116 | 0.582 |  | 0.487 | 0.592 |  |  |  |  |  |  |  |  | 
10 | C=C1C[C@@H]2CC[C@@]34C[C@H]5O[C@H]6[C@@H](O3)[C@H]3O[C@H](CC[C@@H]3O[C@H]6[C@H]5O4)CC(=O)C[C@@H]3[C@@H](OC)[C@@H](C[C@H](O)CN)O[C@H]3C[C@H]3O[C@@H](CC[C@@H]1O2)C[C@@H](C)C3=C | > 1 | > 1 | > 1 | > 1 | 0.0479 | 0.00215 | 0.245 | > 1 |  | > 1 |  |  |  |  |  |  |  |  | 
11 | N#Cc1nc(CCCN2C(=O)c3ccccc3C2=O)oc1N | > 100 |  | > 100 | > 100 | > 100 | > 100 |  | > 100 | > 100 | > 100 |  |  |  |  |  |  |  |  | 
12 | O=c1[nH]c(=O)n(C2CC(O)C(CO)O2)cc1OC/C=C/Cc1ccccc1 (configuration not stated) | > 100 | > 100 | > 100 |  | > 100 |  |  | > 100 | > 100 | > 100 |  |  |  |  |  |  |  |  | 
13 | CCN(CCCCCCCCCCN1CC(=O)N(CCCCCCCCCCN(CC)Cc2ccccc2OC)CC1=O)Cc1ccccc1OC |  | 3.89 | 3.24 | 3.95 | 8.04 | 3.33 | 2.94 | 6.82 | 10.1 | 3.22 | 2.06 | 1.75 | 1.64 | 1.75 | 1.8 | 1.58 | 1.09 | 2.36 | 2.11
14 | N#Cc1ccc(-c2nc(C#N)c(N)o2)cc1 | > 10 | > 10 | > 10 | > 10 | > 10 | > 10 |  | > 10 | > 10 | > 10 |  |  |  |  |  |  |  |  | 
15 | CC(C)=CCC12Cc3ccc(O)cc3C(C(C)CN1)C2C (configuration not stated) |  | > 100 | > 100 | > 100 | > 100 | > 100 | > 100 | > 100 | > 100 | > 100 |  |  |  |  |  |  |  |  | 
16 | CCCCCCc1cc2cc(-c3csc(-c4ccc(OC)cc4)n3)c(=O)oc2cc1O | 7.38 | 24.6 |  | 34.3 | > 100 | 25.6 |  | 25.1 | > 100 | 24.6 |  |  |  |  |  |  |  |  | 
17 | COc1ccc(OC)c(NC(=O)C(=O)C(C(=O)c2ccccc2F)C2OC(=O)c3ccccc32)c1 (configuration not stated) |  | > 100 |  | > 100 | > 100 | 82.2 | > 100 | > 100 | 91.1 | > 100 |  |  |  |  |  |  |  |  | 
18 | O=C(/C=C\Nc1ccccc1O)C(F)(F)F | > 100 | > 100 | > 100 | > 100 | > 100 | > 100 |  | > 100 | > 100 | > 100 |  |  |  |  |  |  |  |  | 
19 | O=[N+]([O-])/C(Cl)=C(/C(Cl)=C(Cl)Cl)N1CCCCC1 |  | 17.1 | 19.1 |  | 11.7 | 31.9 | 33.4 | 30.7 | 19.7 | 30.3 |  |  |  |  |  |  |  |  | 
20 | Clc1cc(C(c2cc(Cl)sc2Cl)c2cc(Cl)sc2Cl)c(Cl)s1 |  | > 100 | > 100 | > 100 | > 100 | > 100 | > 100 | > 100 | > 100 | > 100 |  |  |  |  |  |  |  |  | 
21 | CCOc1snc(C(Cl)(Cl)Cl)c1Cl | 70.6 | > 100 |  | > 100 | 38 | > 100 | 62.8 | > 100 | 54.5 | 94 |  |  |  |  |  |  |  |  | 
22 | O=c1ccn(-c2ccccn2)c(=O)n1-c1ccccn1 |  |  | > 100 | > 100 | > 100 | > 100 | > 100 | > 100 | > 100 | > 100 |  |  |  |  |  |  |  |  | 
